The target of one assay is T1, recombinant human CK2 (Homo sapiens, UniProt P68400).
T1 construct: purchased Millipore
The assay is described as follows: CK2 Kinase Assay (33P-ATP, substrate peptide RRRDDDSDDD). It is filed as biochemical. The note with it: recombinant human CK2 holoenzyme, final ATP concentration 15 μM, 10 min at 30° C.; read-out: protein kinase CK2 IC50. Here is the method:
CK2 Kinase Assay was conducted using the protocol as described in Pierre F. et al; J. Med. Chem. 2011, 54, 635-654. The tested compounds in aqueous solution were added at a volume of 10 μL to a reaction mixture comprising 10 μL of assay dilution buffer (ADB; 20 mM MOPS, pH 7.2, 25 mM β-glycerol phosphate, 5 mM EGTA, 1 mM sodium orthovanadate, and 1 mM dithiothreitol), 10 μL of substrate peptide (RRRDDDSDDD, dissolved in ADB at a concentration of 1 mM), 10 μL of recombinant human CK2 (RROP-holoenzyme, 25 ng dissolved in ADB; Millipore). Reactions were initiated by the addition of 10 μL of ATP solution (90% 75 mMMgCl2, 75 μM ATP (final ATP concentration: 15 μM) dissolved in ADB; 10% [γ-33P] ATP (stock 1 mCi/100 μL; 3000 Ci/mmol (Perkin-Elmer) and maintained for 10 min at 30° C. The reactions were quenched with 100 μL of 0.75% phosphoric acid and then transferred to and filtered through a phosphor cellulose filter plate (Millipore). After washing each well five times with 0.75% phosphoric acid, the plate was dried under vacuum for 5 min and, following the addition of 15 μL of scintillation fluid to each well, the residual radioactivity was measured using a Wallac […] counter. The IC50 values were derived from eight concentrations of test inhibitors.

The test system of the next assay is HL60 (leukemia). The assay is described as follows: In vitro cytotoxic activity (MTT) assay, HL60. It is filed as cell-based. Conditions: Homo sapiens, HL-60; HL60 cells, exposed for 96 hours, 50% inhibition of cell proliferation; read-out: Cytotoxicity activity IC50, HL60 (leukemia). The method, then: (§1) Compounds 1-16 were screened for their in vitro cytotoxic activity utilizing a 3-(4,5-dimethyl-thiazol-2-yl)-2,5-diphenyltetrazolium bromide (MTT) assay against selected cancer human cell lines consisting of PC3 (prostate), HCT116 (colon), A375 (melanoma), H1299 (lung), MIAPaCa-2 (pancreas), HL60 (leukemia), MCF7 (breast), MDA-MB-231 (breast) (T. Mosmann, J. Immunol. Meth., 1983, 65, 55-63). The cells were cultured at 37° C. in RMPI1640 medium supplemented with 10% fetal bovine serum, 50 IU/mL penicillin, and 50 μg/mL streptomycin in a 5% CO2 incubator. All cells were sub-cultured 3 times/week by trypsinisation. Viable cells were seeded and allowed to adhere for 12 hours before a test drug was added in 96-well plates at an initial density of 1.0×10^5 cells/mL. Tumor cell lines were separately exposed to various concentrations of the tested compounds followed by incubation at a temperature of 37° C. during 96 hours inside a medium of fresh RMPI 1640. Cells were subsequently incubated at 37° C. using MTT at 0.5 mg/mL during 4 hours. After removal of supernatant, formazan crystals were dissolved in isopropanol and the optical density was measured at 570 nm. CX-4945 was used as a positive control.

For a further assay, the system named is MDA-MB-231 (breast). The assay is described as follows: In vitro cytotoxic activity (MTT) assay, MDA-MB-231. It is filed as cell-based. Conditions: Homo sapiens; MDA-MB-231 cells, exposed for 96 hours, 50% inhibition of cell proliferation; read-out: Cytotoxicity activity IC50, MDA-MB-231 (breast). The method, then: as §1
A further assay concerns MIAPaCa-2 (pancreas). Description: In vitro cytotoxic activity (MTT) assay, MIAPaCa-2. It is filed as cell-based. Conditions: Homo sapiens, MIA PaCa-2; MIAPaCa-2 cells, exposed for 96 hours, 50% inhibition of cell proliferation; read-out: Cytotoxicity activity IC50, MIAPaCa-2 (pancreas). The method, then: as §1
In the next assay the test system is HCT116 (colon). Description: In vitro cytotoxic activity (MTT) assay, HCT116. It is filed as cell-based. The note with it: Homo sapiens, HCT-116; HCT116 cells, exposed for 96 hours, 50% inhibition of cell proliferation; read-out: Cytotoxicity activity IC50, HCT116 (colon). Here is the method: as §1
In the next assay the test system is MCF7 (breast). Description: In vitro cytotoxic activity (MTT) assay, MCF7. It is filed as cell-based. Conditions: Homo sapiens; MCF7 cells, exposed for 96 hours, 50% inhibition of cell proliferation; read-out: Cytotoxicity activity IC50, MCF7 (breast). The method, then:
as §1

Another assay relates to A375 (melanoma). Description: In vitro cytotoxic activity (MTT) assay, A375. Conditions: Homo sapiens, A-375; A375 cells, exposed for 96 hours, 50% inhibition of cell proliferation; read-out: Cytotoxicity activity IC50, A375 (melanoma). It is filed as cell-based. Here is the method: as §1
The test system of the next assay is H1299 (lung). Description: In vitro cytotoxic activity (MTT) assay, H1299. It is filed as cell-based. Conditions: Homo sapiens, NCI-H1299; H1299 cells, exposed for 96 hours, 50% inhibition of cell proliferation; read-out: Cytotoxicity activity IC50, H1299 (lung). The method, then:
as §1

For another assay, the system named is PC3 (prostate). The assay is described as follows: In vitro cytotoxic activity (MTT) assay, PC3. It is filed as cell-based. Conditions: Homo sapiens, PC-3; PC3 cells, exposed for 96 hours, 50% inhibition of cell proliferation; read-out: Cytotoxicity activity IC50, PC3 (prostate). The method, then:
as §1

T1 sequence (P68400 whole entry): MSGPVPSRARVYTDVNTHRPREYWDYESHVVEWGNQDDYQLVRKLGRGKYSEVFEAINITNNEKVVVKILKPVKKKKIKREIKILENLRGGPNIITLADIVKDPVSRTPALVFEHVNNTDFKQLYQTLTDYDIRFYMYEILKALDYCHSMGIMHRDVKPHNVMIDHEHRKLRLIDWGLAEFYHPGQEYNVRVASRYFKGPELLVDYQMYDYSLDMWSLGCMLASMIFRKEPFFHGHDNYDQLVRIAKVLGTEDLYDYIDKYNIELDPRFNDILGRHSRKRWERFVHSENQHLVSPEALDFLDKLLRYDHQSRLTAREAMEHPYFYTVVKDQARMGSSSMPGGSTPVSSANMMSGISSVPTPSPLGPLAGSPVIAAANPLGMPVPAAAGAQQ
T1 sequence (P67870 whole entry partner): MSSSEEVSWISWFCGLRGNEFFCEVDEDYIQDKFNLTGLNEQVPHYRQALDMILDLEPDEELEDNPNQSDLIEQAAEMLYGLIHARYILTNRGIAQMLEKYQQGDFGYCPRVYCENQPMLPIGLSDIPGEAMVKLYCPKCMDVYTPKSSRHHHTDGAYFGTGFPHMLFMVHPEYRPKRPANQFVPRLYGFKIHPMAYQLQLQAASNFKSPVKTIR

Take `O=C(O)c1ncn2c1nc(Nc1cccc(Cl)c1)c1ccncc12` [Compound 1, 5-((3-chlorophenyl)amino)imidazo[1,5-a]pyrido[4,3-e]pyrimidine-3-carboxylic acid]: the IC50 – broadly, the concentration needed to halve the response being measured – on recombinant human CK2 turned out to be 0.074 µM; in the assay with HL60 (leukemia), 3.6 µM; in the assay with MDA-MB-231 (breast), 4.5 µM; in the assay with MIAPaCa-2 (pancreas), 1.3 µM; with HCT116 (colon) it was 2 µM; in the assay on MCF7 (breast), 5.4 µM. For the same molecule, the IC50 with A375 (melanoma) turned out to be 3.8 µM; with H1299 (lung), 1.9 µM; in the assay with PC3 (prostate), 1.7 µM.

For the origin of these results see patent publication US12012414B1, “Imidazo[1,5-a]pyrido[4,3-e]pyrimidines as CK2 inhibitors” (KING FAISAL UNIVERSITY, priority 2024, dated 2024).
